Assay results reported in patent publication US12077503B2, “Substituted cyclic amides and their use as herbicides” (FMC CORPORATION, priority 2015, dated 2024).

Key:
Type in all cases: in vivo
Kochia (Kochia scoparia) [1] = assay: Test A preemergence; conditions: Bassia scoparia, pre-emergence, 240 h, 0 to 100 scale (0 no effect, 100 complete control), read-out: Plant response rating, Kochia; for pest or weed control at 500 g/ha: 500 g ai/ha, preemergence; for pest or weed control at 125 g/ha: Preemergence, 125 g ai/ha
How it was run: (§1)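 Preemergence directed soil spray on seeded pots, or postemergence application to plants 2–10 cm, one- to two-leaf. Solvent mixture non-phytotoxic, with surfactant. Scored ~10 d later, visually, 0–100 vs untreated.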

[2] = test system: barnyardgrass (Echinochloa crus-galli); assay: Test A preemergence; conditions: Echinochloa crus-galli, pre-emergence, 240 h, 0 to 100 scale (0 no effect, 100 complete control), read-out: Plant response rating, Barnyardgrass; for pest or weed control at 500 g/ha: 500 g ai/ha, preemergence; for pest or weed control at 125 g/ha: Preemergence, 125 g ai/ha
How it was run: as §1

[3] = test system: giant foxtail (Setaria faberii); assay: Test A preemergence; conditions: Setaria faberi, pre-emergence, 240 h, 0 to 100 scale (0 no effect, 100 complete control), read-out: Plant response rating, Foxtail, Giant; for pest or weed control at 500 g/ha: 500 g ai/ha, preemergence; for pest or weed control at 125 g/ha: Preemergence, 125 g ai/ha
How it was run: as §1

[4] = test system: pigweed (Amaranthus retroflexus); assay: Test A preemergence; conditions: Amaranthus retroflexus, pre-emergence, 240 h, 0 to 100 scale (0 no effect, 100 complete control), read-out: Plant response rating, Pigweed; for pest or weed control at 500 g/ha: 500 g ai/ha, preemergence; for pest or weed control at 125 g/ha: Preemergence, 125 g ai/ha
[5] = test system: ragweed (common ragweed, Ambrosia elatior); assay: Test A preemergence; conditions: Ambrosia artemisiifolia, pre-emergence, 240 h, 0 to 100 scale (0 no effect, 100 complete control), read-out: Plant response rating, Ragweed; for pest or weed control at 500 g/ha: 500 g ai/ha, preemergence; for pest or weed control at 125 g/ha: Preemergence, 125 g ai/ha
How it was run: as §1

[6] = test system: ryegrass, Italian (Italian ryegrass, Lolium multiflorum); assay: Test A preemergence; conditions: Lolium multiflorum, pre-emergence, 240 h, 0 to 100 scale (0 no effect, 100 complete control), read-out: Plant response rating, Ryegrass, Italian; for pest or weed control at 500 g/ha: 500 g ai/ha, preemergence; for pest or weed control at 125 g/ha: Preemergence, 125 g ai/ha
How it was run: as §1

[7] = test system: Galium (catchweed bedstraw, Galium aparine); assay: Test A postemergence; conditions: Galium, post-emergence, 240 h, Postemergence; for pest or weed control at 125 g/ha: 125 g ai/ha, visual rating about 10 d after treatment, read-out: Galium plant response rating (0 to 100 scale); for pest or weed control at 500 g/ha: 500 g ai/ha, visual injury, 0 to 100 scale (0 no effect, 100 complete control), approx. 10 d, read-out: Plant response rating, Galium
How it was run: as §1

Kochia (Kochia scoparia) [8] = assay: Test A postemergence; conditions: Bassia scoparia, post-emergence, 240 h, Postemergence; for pest or weed control at 125 g/ha: 125 g ai/ha, visual rating about 10 d after treatment, read-out: Kochia plant response rating (0 to 100 scale); for pest or weed control at 500 g/ha: 500 g ai/ha, visual injury, 0 to 100 scale (0 no effect, 100 complete control), approx. 10 d, read-out: Plant response rating, Kochia
How it was run: as §1

[9] = test system: barnyardgrass (Echinochloa crus-galli); assay: Test A postemergence; conditions: Echinochloa crus-galli, post-emergence, 240 h, Postemergence; for pest or weed control at 125 g/ha: 125 g ai/ha, visual rating about 10 d after treatment, read-out: Barnyardgrass plant response rating (0 to 100 scale, 0 no effect, 100 complete control); for pest or weed control at 500 g/ha: 500 g ai/ha, visual injury, 0 to 100 scale (0 no effect, 100 complete control), approx. 10 d, read-out: Plant response rating, Barnyardgrass
How it was run: as §1

[10] = test system: blackgrass (Alopecurus myosuroides); assay: Test A postemergence; conditions: Alopecurus myosuroides, post-emergence, 240 h, Postemergence; for pest or weed control at 125 g/ha: 125 g ai/ha, visual rating about 10 d after treatment, read-out: Blackgrass plant response rating (0 to 100 scale); for pest or weed control at 500 g/ha: 500 g ai/ha, visual injury, 0 to 100 scale (0 no effect, 100 complete control), approx. 10 d, read-out: Plant response rating, Blackgrass
How it was run: as §1

corn (Zea mays) = assay: Test A postemergence; conditions: Zea mays, post-emergence, 240 h, Postemergence; for plant injury at 125 g/ha: 125 g ai/ha, visual rating about 10 d after treatment, read-out: Corn plant response rating (0 to 100 scale); for Corn plant response rating (crop injury, 0 = no effect, 100 = complete kill) at 500 g/ha: 500 g ai/ha, visual injury, 0 to 100 scale (0 no effect, 100 complete control), approx. 10 d
How it was run: as §1

[11] = test system: giant foxtail (Setaria faberii); assay: Test A postemergence; conditions: Setaria faberi, post-emergence, 240 h, Postemergence; for pest or weed control at 125 g/ha: 125 g ai/ha, visual rating about 10 d after treatment, read-out: Foxtail, Giant plant response rating (0 to 100 scale); for pest or weed control at 500 g/ha: 500 g ai/ha, visual injury, 0 to 100 scale (0 no effect, 100 complete control), approx. 10 d, read-out: Plant response rating, Foxtail, Giant
How it was run: as §1

[12] = test system: pigweed (Amaranthus retroflexus); assay: Test A postemergence; conditions: Amaranthus retroflexus, post-emergence, 240 h, Postemergence; for pest or weed control at 125 g/ha: 125 g ai/ha, visual rating about 10 d after treatment, read-out: Pigweed plant response rating (0 to 100 scale); for pest or weed control at 500 g/ha: 500 g ai/ha, visual injury, 0 to 100 scale (0 no effect, 100 complete control), approx. 10 d, read-out: Plant response rating, Pigweed
How it was run: as §1

[13] = test system: ragweed (common ragweed, Ambrosia elatior); assay: Test A postemergence; conditions: Ambrosia artemisiifolia, post-emergence, 240 h, Postemergence; for pest or weed control at 125 g/ha: 125 g ai/ha, visual rating about 10 d after treatment, read-out: Ragweed plant response rating (0 to 100 scale); for pest or weed control at 500 g/ha: 500 g ai/ha, visual injury, 0 to 100 scale (0 no effect, 100 complete control), approx. 10 d, read-out: Plant response rating, Ragweed
How it was run: as §1

[14] = test system: ryegrass, Italian (Italian ryegrass, Lolium multiflorum); assay: Test A postemergence; conditions: Lolium multiflorum, post-emergence, 240 h, Postemergence; for pest or weed control at 125 g/ha: 125 g ai/ha, visual rating about 10 d after treatment, read-out: Ryegrass, Italian plant response rating (0 to 100 scale); for pest or weed control at 500 g/ha: 500 g ai/ha, visual injury, 0 to 100 scale (0 no effect, 100 complete control), approx. 10 d, read-out: Plant response rating, Ryegrass, Italian
How it was run: as §1

[15] = test system: wheat (Triticum aestivum); assay: Test A postemergence; conditions: Triticum aestivum, post-emergence, 240 h, Postemergence; for plant injury at 125 g/ha: 125 g ai/ha, visual rating about 10 d after treatment, read-out: Wheat plant response rating (0 to 100 scale); for plant injury at 500 g/ha: 500 g ai/ha, visual injury, 0 to 100 scale (0 no effect, 100 complete control), approx. 10 d, read-out: Plant response rating, Wheat
How it was run: as §1

| SMILES | pest or weed control at 500 g/ha (Kochia (Kochia scoparia) [1]) [%] | pest or weed control at 125 g/ha (Kochia (Kochia scoparia) [1]) [%] | pest or weed control at 500 g/ha [2] [%] | pest or weed control at 125 g/ha [2] [%] | pest or weed control at 500 g/ha [3] [%] | pest or weed control at 125 g/ha [3] [%] | pest or weed control at 500 g/ha [4] [%] | pest or weed control at 125 g/ha [4] [%] | pest or weed control at 500 g/ha [5] [%] | pest or weed control at 125 g/ha [5] [%] | pest or weed control at 500 g/ha [6] [%] | pest or weed control at 125 g/ha [6] [%] | pest or weed control at 125 g/ha [7] [%] | pest or weed control at 500 g/ha [7] [%] | pest or weed control at 125 g/ha (Kochia (Kochia scoparia) [8]) [%] | pest or weed control at 500 g/ha (Kochia (Kochia scoparia) [8]) [%] | pest or weed control at 125 g/ha [9] [%] | pest or weed control at 500 g/ha [9] [%] | pest or weed control at 125 g/ha [10] [%] | pest or weed control at 500 g/ha [10] [%] | further results |
| --- | --- | --- | --- | --- | --- | --- | --- | --- | --- | --- | --- | --- | --- | --- | --- | --- | --- | --- | --- | --- | --- |
| O=C1NC[C@H](c2cncs2)[C@H]1C(=O)Nc1cccc(F)c1F [Compound 1336] | 0 | 0 | 0 | 0 | 0 | 0 | 0 | 0 | 0 | 0 | 0 | 0 | 0 | 0 | 0 | 0 | 0 | 0 | 0 | 0 | plant injury at 125 g/ha (corn (Zea mays)): 0%; Corn plant response rating (crop injury, 0 = no effect, 100 = complete kill) at 500 g/ha (corn (Zea mays)): 0%; pest or weed control at 125 g/ha [11]: 0%; pest or weed control at 500 g/ha [11]: 0%; pest or weed control at 125 g/ha [12]: 0%; pest or weed control at 500 g/ha [12]: 0%; pest or weed control at 125 g/ha [13]: 0%; pest or weed control at 500 g/ha [13]: 0%; pest or weed control at 125 g/ha [14]: 0%; pest or weed control at 500 g/ha [14]: 0%; plant injury at 125 g/ha [15]: 0%; plant injury at 500 g/ha [15]: 0% |
| N#Cc1cc([C@H]2CNC(=O)[C@]2(O)C(=O)Nc2cccc(F)c2F)ccc1F [Compound 1374] | 0 | 0 | 0 | 0 | 0 | 0 | 0 | 0 | 0 | 0 | 0 | 0 | 0 | 0 | 0 | 0 | 0 | 50 | 0 | 0 | plant injury at 125 g/ha (corn (Zea mays)): 0%; Corn plant response rating (crop injury, 0 = no effect, 100 = complete kill) at 500 g/ha (corn (Zea mays)): 0%; pest or weed control at 125 g/ha [11]: 0%; pest or weed control at 500 g/ha [11]: 0%; pest or weed control at 125 g/ha [12]: 0%; pest or weed control at 500 g/ha [12]: 0%; pest or weed control at 125 g/ha [13]: 0%; pest or weed control at 500 g/ha [13]: 0%; pest or weed control at 125 g/ha [14]: 0%; pest or weed control at 500 g/ha [14]: 0%; plant injury at 125 g/ha [15]: 0%; plant injury at 500 g/ha [15]: 0% |
| CN1C[C@H](c2ccc(C(F)(F)F)cc2)[C@@H](C(=O)Nc2ccccc2C#N)C1=O [Compound 1379] | 90 | 90 | 100 | 100 | 100 | 100 | 90 | 80 | 90 | 70 | 50 | 20 | 40 | 60 | 30 | 60 | 100 | 100 | 20 | 30 | plant injury at 125 g/ha (corn (Zea mays)): 70%; Corn plant response rating (crop injury, 0 = no effect, 100 = complete kill) at 500 g/ha (corn (Zea mays)): 70%; pest or weed control at 125 g/ha [11]: 80%; pest or weed control at 500 g/ha [11]: 80%; pest or weed control at 125 g/ha [12]: 20%; pest or weed control at 500 g/ha [12]: 50%; pest or weed control at 125 g/ha [13]: 30%; pest or weed control at 500 g/ha [13]: 60%; pest or weed control at 125 g/ha [14]: 30%; pest or weed control at 500 g/ha [14]: 30%; plant injury at 125 g/ha [15]: 30%; plant injury at 500 g/ha [15]: 50% |
